Measurements from patent US12202942B2, “Functionalized silicone polymers and methods of making and using the same” (Wilmar Trading Pte. Ltd., priority 2018, dated 2025).

Assays:
Assay type in all cases: physicochemical
[1] = Solubility in organic solvents
[2] = Brookfield viscosity of grafted siloxane derivatives
Description: (§1) The reactions were extremely exothermic and needed to be cooled by a dry ice bath once the temperature approached 30° C. For these reactions, an excess amount of terminal olefin substrate was used based on the equivalent weight (eqW) of hydrosiloxane. Reaction progress was monitored by FTIR as both the hydrosilane absorbance (2150 cm-1) and terminal olefin absorbance (1640 cm-1) disappeared while the carbonyl absorbance remained constant (1735 cm-1). Once the reaction was judged complete, the unreacted olefin starting material was removed by vacuum distillation. The resulting organofunctional siloxane oligomers were analyzed without further purification by 1H-NMR spectroscopy.
Into either a 50 or 100 ml three-necked, round-bottomed flask equipped with a magnetic stirrer, a thermocouple with a J-Kem controller, a heating mantle and a short path distillation apparatus with a nitrogen inlet was added the uC10 derivative and the hydrosilane oligomer. In most cases the reaction was run neat, however the uC10MEE-16-based reactions were two phase so that isopropanol (IPOH) was added to compatiblize the reactants. Once the catalyst was added (1 drop) at ambient temperatures, the temperature was carefully monitored. The reaction was gentle warmed by an air gun until about 30° C. when heating was discontinued and a dry ice bath was used to moderate the vigorous exotherm. Once the temperature had stabilized, then the heating mantle was used to hold the reaction temperature at 60° C. for the next few hours. The reaction's progress was easily monitored by FTIR as both the hydrosilane absorbance (2150 cm^−1) and the terminal olefin's absorbance (1640 cm^−1) disappeared while the carbonyl absorbance remained constant (1735 cm^−1). When the reactions were judged complete, they were typically subjected to reduced pressure to remove any excess reagents or solvents. The products were transferred into 2 oz glass bottles and remained liquids except for the uC16MEE-16-based materials that solidified. […]

[3] = Surface tension of grafted siloxane derivatives
Description: as §1

| Structure (SMILES) | Solubility in polar organic solvents (in words) ([1]; polar organic solvents) | Solubility (wt %) MEK ([1]; solvent MEK) | Solubility (wt %) Acetone ([1]; solvent acetone) | Solubility (wt %) Acetonitrile ([1]; solvent acetonitrile) | Solubility (wt %) Ethylene Glycol ([1]; solvent ethylene glycol) | Solubility (wt %) Heptanes ([1]; solvent heptanes) | Solubility (wt %) Methanol ([1]; solvent methanol) | Viscosity (25° C.) [2] | Surface Tension (20° C.) [3] |
| --- | --- | --- | --- | --- | --- | --- | --- | --- | --- |
| COC(=O)CCCCCCCCC[Si](C)(O[Si](C)(C)C)O[Si](C)(C)C [Compound 6] | significantly more soluble | >50 wt % | >50 wt % | 13 wt % | 6 wt % | >50 wt % | 17 wt % | 7.1 | 22.6 mN/m |
| COCCOCCOCCOC(=O)CCCCCCCCC[Si](C)(O[Si](C)(C)C)O[Si](C)(C)C [Compound 7] | – | – | – | – | – | – | – | 17 | 21.4 mN/m |
| C[Si](C)(C)O[Si](C)(CCCCCCCCCC(=O)OCCC(F)(F)C(F)(F)C(F)(F)C(F)(F)F)O[Si](C)(C)C [Compound 9] | – | – | – | – | – | – | – | 16 | 20.8 mN/m |
